Source: US4794079A, “Determination of hydrogen peroxide using fluorogenic dihydroquinolone and dihydrocoumarin indicators” (Miles Inc., priority 1985, dated 1988)

Target: T1, horseradish peroxidase (Armoracia rusticana, UniProt P00433)
T1 sequence (P00433 31-353): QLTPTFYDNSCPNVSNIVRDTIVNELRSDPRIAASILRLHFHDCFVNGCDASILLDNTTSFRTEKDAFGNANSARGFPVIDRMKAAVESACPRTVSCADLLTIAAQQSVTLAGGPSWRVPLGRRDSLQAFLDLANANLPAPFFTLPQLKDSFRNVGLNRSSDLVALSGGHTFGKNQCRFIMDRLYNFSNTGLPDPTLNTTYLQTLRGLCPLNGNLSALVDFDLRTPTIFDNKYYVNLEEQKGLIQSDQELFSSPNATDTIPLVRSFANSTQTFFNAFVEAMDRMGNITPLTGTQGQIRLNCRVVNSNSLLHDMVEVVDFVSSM
Test: Detection of hydrogen peroxide: fluorescence of indicator compounds after adding horseradish peroxidase and hydrogen peroxide
Type: biochemical
Details: 1.0 μM compound; for Relative Fluorescence of Indicator Compounds, Fluorescence Units, 0 secs: sodium phosphate buffer pH 7.0 or 7.5, 37° C., nM of fluorescent standard 7-hydroxy-3-(N-ethylcarboxamido)coumarin giving the same light output
Experimental: A 1.0 μM, pH 7.0 or 7.5, sodium phosphate buffer solution of the dihydroquinolones and dihydrocoumarins listed in the Table below were prepared by successive dilutions with the buffer of an ethanol or DMF-ethanol solution of the appropriate compound. The solution was warmed in a 37° C. bath, then a 40 microliter (μL) of 1 mg/mL horseradish peroxidase enzyme was added in one portion. The contents of the cuvette were mixed and the fluorescence was monitored for at least 50 seconds (the quartz cell and its contents were held at a constant 37° C.). A quantity of hydrogen peroxide diluted in cold water and stored at 0° for less than eight hours was then added in an amount suitable for the desired ratio of dihydroquinolone to peroxide. The fluorescence was then monitored over a 600 second time span. Fluorescent values for compounds (5), (6), (7), (11), (16), and (17) were reported in units of concentration (nM) of the flourescent standard 7 -hydroxy-3-(N-ethylcarboxamido) coumarin (U.S. Pat. No. 4,273,715) which would be required to achieve the same fluorescence light output as the subject of study. Compound (8) is reported in photons/second. All slit widths were set at 2 nm (nanometers).
Fluorescence was measured in quartz cuvettes on an SLM 8000 spectrofluorometer (SLM Instruments, Inc. Urbana, Ill.). A Hewlett-Packard8915A computer was used to process spectra.

[1] = 25 secs, pH 7.0 or 7.5, 37° C., nM of fluorescent standard equivalent
[2] = 100 secs, pH 7.0 or 7.5, 37° C., nM of fluorescent standard equivalent
[3] = 200 secs, pH 7.0 or 7.5, 37° C., nM of fluorescent standard equivalent
[4] = 600 secs, pH 7.0 or 7.5, 37° C., nM of fluorescent standard equivalent

| Relative Fluorescence of Indicator Compounds, Fluorescence Units, 0 secs (0 secs) | Relative Fluorescence of Indicator Compounds, Fluorescence Units, 25 secs [1] | Relative Fluorescence of Indicator Compounds, Fluorescence Units, 50 secs (50 secs, pH 7.0 or 7.5, 37° C., nM of fluorescent standard equivalent) | Relative Fluorescence of Indicator Compounds, Fluorescence Units, 100 secs [2] | Relative Fluorescence of Indicator Compounds, Fluorescence Units, 200 secs [3] | Relative Fluorescence of Indicator Compounds, Fluorescence Units, 600 secs [4] | Fluorescence Units, 0 secs (0 secs, pH 7.0 or 7.5, 37° C., excitation 400 nm, emission 450 nm) | Fluorescence Units, 25 secs (25 secs, pH 7.0 or 7.5, 37° C., excitation 400 nm, emission 450 nm) | Fluorescence Units, 50 secs (50 secs, pH 7.0 or 7.5, 37° C., excitation 400 nm, emission 450 nm) | Fluorescence Units, 100 secs (100 secs, pH 7.0 or 7.5, 37° C., excitation 400 nm, emission 450 nm) | Fluorescence Units, 200 secs (200 secs, pH 7.0 or 7.5, 37° C., excitation 400 nm, emission 450 nm) | Fluorescence Units, 600 secs (600 secs, pH 7.0 or 7.5, 37° C., excitation 400 nm, emission 450 nm) | Structure (SMILES) |
| --- | --- | --- | --- | --- | --- | --- | --- | --- | --- | --- | --- | --- |
| < 0.12 nM | 4.0 nM | 8.75 nM | 11.0 nM | 11.25 nM | 10.8 nM |  |  |  |  |  |  | CCOC(=O)C1Cc2ccc(NC)cc2NC1=O (stereo not shown) [Compound 6, 7-Methylamino-3-carbethoxy-3,4-dihydro-2-quinolone] |
|  |  |  |  |  |  | < 428 photons/second | 20,142 photons/second | 27,000 photons/second | 29,000 photons/second | 30,000 photons/second | 30,000 photons/second | CCNC(=O)C1Cc2ccc(N(C)C)cc2NC1=O (stereo not shown) [Compound 8, 7-Dimethylamino-3-(N-ethylcarboxamido)-3,4-dihydro-2-quinolone] |
| 4.3 nM | 8.9 nM |  | 101.5 nM | 133.5 nM | 142.5 nM |  |  |  |  |  |  | CCNC(=O)C1Cc2ccc(N(C)C)cc2N(C)C1=O (stereo not shown) [Compound 11, 7-Dimethylamino-3-(N-ethylcarboxamido)-3,4-dihydro-1-methyl-2-quinolone] |
| 1.4 nM | 81.5 nM |  | 101.5 nM | 101.5 nM | 101.25 nM |  |  |  |  |  |  | CCOC(=O)C1Cc2ccc(N(C)C)cc2NC1=O (stereo not shown) [Compound 5, 7-Dimethylamino-3-carbethoxy-3,4-dihydro-2-quinolone] |
| 0.6 nM | 8.8 nM |  | 13.0 nM | 25.9 nM | 42.5 nM |  |  |  |  |  |  | CCOC(=O)C1Cc2cc3c4c(c2OC1=O)CCCN4CCC3 (stereo not shown) [Compound 17, [2,3,6,7,9,10]-Hexahydro-10-carbethoxy-11-oxo-1H,5H,11H-[1]benzopyran[6,7,8-ij]quinolizine] |
| 1.3 nM | 4.3 nM |  | 5.7 nM | 6.3 nM | 6.3 nM |  |  |  |  |  |  | CCOC(=O)C1Cc2ccc(O)cc2N(C)C1=O (stereo not shown) [Compound 16, 7-Hydroxy-3-carbethoxy-3,4-dihydro-1-methyl-2-quinolone] |

| Structure (SMILES) | Relative Fluorescence of Indicator Compounds, Fluorescence Units, 0 secs (0 secs) | Relative Fluorescence of Indicator Compounds, Fluorescence Units, 25 secs [1] | Relative Fluorescence of Indicator Compounds, Fluorescence Units, 50 secs (50 secs, pH 7.0 or 7.5, 37° C., nM of fluorescent standard equivalent) | Relative Fluorescence of Indicator Compounds, Fluorescence Units, 100 secs [2] | Relative Fluorescence of Indicator Compounds, Fluorescence Units, 200 secs [3] | Relative Fluorescence of Indicator Compounds, Fluorescence Units, 600 secs [4] | Fluorescence Units, 0 secs (0 secs, pH 7.0 or 7.5, 37° C., excitation 400 nm, emission 450 nm) | Fluorescence Units, 25 secs (25 secs, pH 7.0 or 7.5, 37° C., excitation 400 nm, emission 450 nm) | Fluorescence Units, 50 secs (50 secs, pH 7.0 or 7.5, 37° C., excitation 400 nm, emission 450 nm) | Fluorescence Units, 100 secs (100 secs, pH 7.0 or 7.5, 37° C., excitation 400 nm, emission 450 nm) | Fluorescence Units, 200 secs (200 secs, pH 7.0 or 7.5, 37° C., excitation 400 nm, emission 450 nm) | Fluorescence Units, 600 secs (600 secs, pH 7.0 or 7.5, 37° C., excitation 400 nm, emission 450 nm) |
| --- | --- | --- | --- | --- | --- | --- | --- | --- | --- | --- | --- | --- |
| CN(C)c1ccc2c(c1)NC(=O)C(C(=O)[O-])C2.[K+] (stereo not shown) [Compound 7, 7-Dimethylamino-3-carboxy-3,4-dihydro-2-quinolone potassium salt] | 1.4 nM | 12.3 nM |  | 22.2 nM | 24.3 nM | 24.6 nM |  |  |  |  |  |  |
